Patent publication US9023806B2, “Peptide capable of altering tubulin polymerization and use thereof for inhibiting cell proliferation” (Universite d'Angers, priority 2004, dated 2015)
“Also recorded” adds a separate entry of the source.

How the values were obtained:
[1] = test system: tubulin; assay: Peptide-on-membrane chip blot overlay with purified tubulin; type: binding, mice; details: purified tubulin overnight at 4° C., anti-βIII tubulin antibody
From the text: Peptide chips corresponding to the NFL, NFM and NFH neurofilament subunits were obtained according to Frank et al., 1992, with an ASP 222 automat spot robot. Each neurofilament sequence was divided into sequences of 15 amino acids.
These peptides overlap 12 amino acids of the next peptide. The overlapping peptides were synthesized on spots, like a chip, on a specially produced cellulose membrane (AIMS scientific product, GmbH, Braunschweig, Germany). The peptides are bound to the membrane with a polyethylene glycol bridge owing to their carboxy-terminal amino acid. The synthetic procedure followed is that of Frank et al., 1996.
Alternatively, the strips that were detected were cut out and analyzed by mass spectrometry. The peptide-on-membrane chip was incubated overnight at 4° C. with purified tubulin. After extensive washing with TBS (1×) the membranes were incubated with anti-βIII-tubulin antibodies in order to detect the amino acid sequences that interact with tubulin.
In order to identify the sequences responsible for the binding of tubulin to the neurofilaments, we use peptide-on-membrane chips, corresponding to the three neurofilament subunits (see experimental procedures). This method makes it possible to identify the binding domain involved in protein-protein interaction. […] The NFL subunit contains two tubulin binding sequences of 24 amino acids which we call NFL-TBS1 and NFL-TBS2 whereas NFM-TBS and NFH-TBS both contain 39 amino acids (FIG. 2A). […]

[2] = test system: tubulin; assay: Spectrophotometric (turbidimetry, OD 350 nm) analysis of microtubule polymerization; type: biochemical, mice; details: for influence on polymerization of microtubules (inhibition or activation): in vitro turbidimetry
Method: The alteration of tubulin polymerization is measured by measuring the turbidity (optical density at 350 nm) of a tubulin suspension. A decrease in turbidity of at least 1% is a sign of inhibition of tubulin polymerization.
The polymerization of tubulin from the supernatant S3 of a microtubule preparation was investigated by turbidimetry. Briefly, the supernatant S3 (3 mg/ml) was incubated at 37° C. in the presence of 1 mM of GTP in a Helios α thermospectronic spectrophotometer to monitor the variations in optical density at 350 nm.
To test this hypothesis, we conducted turbidimetry experiments with the various peptide sequences identified by blot overlay on the peptide chip. For this purpose, the supernatant S3 (containing free tubulin), obtained from a microtubule preparation, was polymerized at 37° C. in the presence of 1 mM GTP and several concentrations (3, 10, 30, and 100 μM) of tubulin binding peptide, which were added before polymerization (t=0).
As previously for the NF-TBS peptides, studies of the influence of the peptides of vimentin, cytokeratin and GFAP identified by peptide chip on the assembly of microtubules in vitro were carried out by the same technique as described previously in the Material and Method section (Spectrophotometric analysis of microtubule polymerization) in Example 1.

[3] = test system: T98G cells; assay: FACS (flow cytometry) cell cycle analysis; type: cell-based
From the text: (B-B′): Analysis by flow cytometry of control cells and cells treated with the peptides SEQ ID No. 6.
The microtubules constitute an important component of the achromatic spindle. To determine whether the presence of peptides SEQ ID No. 6 could affect cell division, the inventors usually carry out a FACS (Fluorescence Activated Cell Sorter) analysis to compare the distribution of the cycles of control cells and T98G cells treated with 10 μm of peptide SEQ ID No. 6.
In order to determine how a peptide that is an activator of microtubule polymerization affects cell division, a FACS analysis was carried out to compare the distribution of the cycles of untreated T98G cells (without peptide) or treated with 100 μm of peptide GFAP-TBS1 (SEQ ID No. 26), by the same protocol as that described in Example 2.

[4] = test system: T98G cells; assay: MTS cell proliferation test; type: cell-based
From the text: The effect of exposure of peptide SEQ ID No. 6 on cell proliferation was confirmed using MTS analysis (described in Cory A. H. et al., 1991, Cancer Commun. 3, 207-212, incorporated here by reference) in which the inventors observed fewer cells in the cultures treated with peptide SEQ ID No. 6 (FIG. 8C).

[5] = test system: T98G cells; assay: Peptide uptake and in-situ microtubule network by immunofluorescence; type: cell-based; details: 6 hours
Method: (A-A′-A″): The T98G cells are treated with the peptides SEQ ID No. 6 (10 μM) for 6 hours and the microtubules are then detected using an anti-tubulin antibody (red) and the biotinylated peptides SEQ ID No. 6 are detected using Alexa-labeled avidin (green).
To determine whether they could also modify the in-situ assembly of microtubules, T98G cells were incubated with 10 μm of biotinylated peptides SEQ ID No. 6. After incubation for 6 hours, more than 75% of the cells contain the peptide (FIG. 8 A, A′, A″) and are characterized by an unusual spherical shape.

tubulin binding site detected on peptide chip [1]	Sequence	influence on polymerization of microtubules (inhibition or activation) [2]	further results
single binding sequence	AYRRVPTETRSSFSRVSGSPSSGFRSQSWSRGSPSTVSS (listed as Mus musculus) [NFM-TBS]	–	–
tubulin binding domains	FGYDPYFSTSYKRRYVETPRVHIS (listed as Mus musculus) [NFL-TBS1]	–	–
tubulin binding sites	GGAYVTRSSAVRLRSSVPGVRLLQ (listed as Mus musculus) [Vim-TBS2]	activate microtubule polymerization	–
tubulin binding sites	GSEVHTKKTVMIKTIETRDGE (listed as Mus musculus) [Des-TBS3]	–	–
tubulin binding sites	KSVSEGHLKRNIVVKTVEMRD (listed as Mus musculus) [GFAP-TBS3]	inhibitors of microtubule polymerization	–
tubulin binding sites	MERRRITSARRSYASETVVRGLGP (listed as Mus musculus) [GFAP-TBS1]	activate microtubule polymerization	cell cycle effect compared with control cells ([3]; 100 μM, 36 hours): strong stopping in phase G1; also recorded: inhibits cell division
tubulin binding sites	MSIRVTQKSYKMSTSGPRAFSSRSFTSGPGARISSSSFSRVGSSSSSFRGSMGT (listed as Mus musculus) [Ker-TBS1]	activate microtubule polymerization	–
tubulin binding sites	MSQAYSSSQRVSSYRRTFGGAPGFSLG (listed as Mus musculus) [Des-TBS1]	–	–
tubulin binding sites	MSTRSVSSSSYRRMFGGS (listed as Mus musculus) [Vim-TBS1]	–	–
tubulin binding sites	QIKSLNNKFASFIDKVRFLEQ (listed as Mus musculus) [Ker-TBS2]	–	–
single binding sequence	RSAAGSSSGFHSWARTSVSSVSASPSRFRGAASSTDSLD (listed as Mus musculus) [NFH-TBS]	–	–
tubulin binding sites	SAGGSNTFSRTTKAVVVKKIETRDGKLVSE (listed as Mus musculus) [Ker-TBS3]	–	–
tubulin binding sites	SLPLVDTHSKRTLLIKTVETR (listed as Mus musculus) [Vim-TBS3]	inhibitors of microtubule polymerization	–
tubulin binding sites	SSPVFPRAGFGTKGSSSSMTSRVYQVSRTSGGAGGLGSLRSSRLGTTRAPSYGA (listed as Mus musculus) [Des-TBS2]	–	–
tubulin binding sites	VRGLGPSRQLGTMPRFSLSRMTPPLPARVDFSLAGA (listed as Mus musculus) [GFAP-TBS2]	–	–
tubulin binding domains	YSSYSAPVSSSLSVRRSYSSSSGS (listed as Mus musculus) [NFL-TBS2]	powerful effect; also recorded: inhibitors of microtubule polymerization	proliferation of T98G cells relative to untreated control ([4]; 10 μM for 48 hours, listed as SEQ ID No. 6): greatly reduced; also recorded: fewer cells; degradation or elimination of peptide during culture ([4]; inferred from comparison with medium replaced at 24 hours): little (if any) degradation or elimination; inhibition of the increase in number of cells ([4]; medium containing peptide replaced at 24 hours, data not shown): clearly observed; cell cycle effect compared with control cells ([3]; 10 μM, 48 hours): strong stopping in phase G1; cells in phase G1 of mitosis ([3]; 10 μm peptide, culture for 48 hours (untreated 39%)): 61%; inhibition of tubulin polymerization ([2]; 100 μM peptide, supernatant S3, 37° C., 1 mM GTP): 100%; microtubule network in cells containing the peptide ([5]; 10 μM, anti-tubulin antibody, listed as SEQ ID No. 6): lack a typical microtubule network; also recorded: disunited network of microtubules; cells containing the peptide ([5]; biotinylated peptide, 10 μm): more than 75%
